According to patent publication US4766127A, “2-(3-pyridylmethyl)naphthalene-6-carboxylic acid as a thromboxane synthetase inhibitor” (Syntex (U.S.A.) Inc., priority 1987, dated 1988):
Where “and” joins values, the source holds several entries; their conditions need not be identical. Equal values may be shown once.

Legend:
prostacyclin = details: background statement; PGH2 diversion to PGI2 when TxA2 synthesis is blocked; cited from earlier work
Thromboxane Synthetase = target: T1, Thromboxane Synthetase (Homo sapiens, UniProt P24557); experiment: Inhibition of ADP-induced human platelet aggregation (PRP + pig aortic microsomes) as measure of thromboxane synthetase inhibition; type: cell-based
T1 construct: Human platelet-rich plasma preparation; endogenous in cells; host or cells: human platelets in citrated platelet-rich plasma
T1 sequence (P24557 1-533): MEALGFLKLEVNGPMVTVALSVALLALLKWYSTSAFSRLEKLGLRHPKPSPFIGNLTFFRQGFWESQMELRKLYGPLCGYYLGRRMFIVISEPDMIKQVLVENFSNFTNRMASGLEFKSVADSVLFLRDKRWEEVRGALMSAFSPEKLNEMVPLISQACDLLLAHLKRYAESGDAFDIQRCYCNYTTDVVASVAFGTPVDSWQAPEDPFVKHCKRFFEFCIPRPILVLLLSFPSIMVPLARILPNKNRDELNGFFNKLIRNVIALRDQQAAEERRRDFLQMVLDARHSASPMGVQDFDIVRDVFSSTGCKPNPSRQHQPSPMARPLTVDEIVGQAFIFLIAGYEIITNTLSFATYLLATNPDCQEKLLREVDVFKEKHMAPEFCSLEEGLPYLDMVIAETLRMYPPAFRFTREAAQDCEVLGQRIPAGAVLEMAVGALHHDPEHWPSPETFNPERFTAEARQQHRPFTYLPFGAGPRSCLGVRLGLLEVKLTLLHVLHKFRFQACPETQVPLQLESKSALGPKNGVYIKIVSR
Protocol: Platelet Aggregation Inhibition
Comparison of 2-(3-pyridylmethyl)naphthalene-6-carboxylic acid and 2-(3-pyridylmethyl)naphthalene-7-carboxylic acid.
Platelet Aggregation Inducer: ADP
Determination of Inhibition and Thromboxane Synthetase Activity Utilizing Human Platelet Aggregation
Human platelet-rich plasma preparation:
Blood sample is collected into siliconized vacutainers containing sodium citrate (0.5 ml of 11.25% sodium citrate per 15 ml vacutainer) final concentration 0.38%. Platelet rich plasma (PRP) is obtained after centrifuging the blood for 15 minutes at 200 xg at room temperature. Blood and plasma contacts only non-wettable plastic or siliconized glass surfaces. Procedure:
1. Aggregation is followed by the turbidimetric method of Born (J. Physiol. 162, 67p, 1962), using a Payton Dual Channel Aggregometer.
2. PRP-PAM control. 1.0 ml PRP is used. Pig aortic microsomes (PAM), prepared according to Neichi, et al. (Prostaglandins, 19(4), 577-86 (1980)), are incubated in PRP at 37° C. with stirring for 3 minutes, immediately followed by addition of inducer-ADP. The concentration of PAM is chosen to show little or no inhibition of platelet aggregation when compared with the aggregation of PRP alone.
3. PRP-PAM plus thromboxane synthetase inhibitor.
Thromboxane synthetase inhibitor is added to 1.0 ml PRP incubated at 37° C. with stirring for two minutes. The PAM concentration is chosen according to step 2, and is added to PRP incubated at 37° C. with stirring for another 3 minutes. The inducer ADP is added immediately afterwards.

[1] = 1 × 10^-4 M, inducer ADP 5×10^-6 M, solvent water
[2] = 2 × 10^-5 M, inducer ADP 5×10^-6 M, solvent water
[3] = 5 × 10^-4 M, inducer ADP 5×10^-6 M, solvent water
[4] = 5 × 10^-6 M, inducer ADP 5×10^-6 M, solvent water
[5] = 1.0 × 10^-7 M, inducer ADP 5×10^-6 M, solvent water
[6] = 5.0 × 10^-5 M, inducer ADP 5×10^-6 M, solvent water
[7] = 5.0 × 10^-7 M, inducer ADP 5×10^-6 M, solvent water

Row | SMILES | levels of prostacyclin produced (prostacyclin) | inhibition at 100 µM (Thromboxane Synthetase; [1]) | inhibition at 20 µM (Thromboxane Synthetase; [2]) | inhibition at 500 µM (Thromboxane Synthetase; [3]) | inhibition at 5 µM (Thromboxane Synthetase; [4]) | IC50 (Thromboxane Synthetase; platelet aggregation inhibition, inducer ADP 5×10^-6 M, solvent water) | % Inhibition (Thromboxane Synthetase; [1]) | % Inhibition (Thromboxane Synthetase; [5]) | inhibition at 0.1 µM (Thromboxane Synthetase; [5]) | inhibition at 0.01 µM (Thromboxane Synthetase; 1.0 × 10^-8 M, inducer ADP 5×10^-6 M, solvent water) | % Inhibition (Thromboxane Synthetase; [2]) | % Inhibition (Thromboxane Synthetase; 2 × 10^-7 M, inducer ADP 5×10^-6 M, solvent water) | inhibition at 0.02 µM (Thromboxane Synthetase; 2.0 × 10^-8 M, inducer ADP 5×10^-6 M, solvent water) | % Inhibition (Thromboxane Synthetase; [3]) | % Inhibition (Thromboxane Synthetase; [6]) | inhibition at 50 µM (Thromboxane Synthetase; [6]) | % Inhibition (Thromboxane Synthetase; [4]) | % Inhibition (Thromboxane Synthetase; [7]) | inhibition at 0.5 µM (Thromboxane Synthetase; [7]) | greater activity as a thromboxane synthetase inhibitor by a factor (Thromboxane Synthetase; factor relative to 2-(3-pyridylmethyl)-naphthalene-7-carboxylic acid)
1 | O=C(O)c1ccc(OCCn2ccnc2)cc1 [dazoxiben] | quite low |  |  |  |  |  |  |  |  |  |  |  |  |  |  |  |  |  |  | 
2 | O=C(O)c1ccc2ccc(Cc3cccnc3)cc2c1 [2-(3-pyridylmethyl)naphthalene-7-carboxylic acid, reference compound] |  | 88.8% | 47.9% | 92.8% | 18.2% | 21 µM |  |  |  |  |  |  |  |  |  |  |  |  |  | 
3 | O=C(O)c1ccc2cc(Cc3cccnc3)ccc2c1 [2-(3-pyridylmethyl)naphthalene-6-carboxylic acid] |  | 98.3% | 90.9 ± 1.3% | 96.6% | 88.7 ± 3.5% |  | 85.2% | 29.3 ± 3.7% | 47 ± 5.2% | 4.7% | 97.4 ± 1.3% | 58.7 ± 9.2% and 97.1 ± 1.9% | 1.6% | 87.3% | 86.5 ± 2.2% | 86.8 ± 1.8% | 100.0% and 85.1 ± 4.1% and 85.3 ± 5.5% | 75.8 ± 3.5% | 78.3% | about 200
